According to patent US11285156B2, “Substituted piperazines as KRAS G12C inhibitors” (Amgen Inc., priority 2018, dated 2022):
Where two headings read alike, the source gives them in different places.

Columns and labels:
[1] = test system: Phosphorylation of ERK1/2 in MIA PaCa-2 cells; experiment: Phospho-ERK1/2 MSD assay in MIA PaCa-2 cells; format: cell-based; conditions: read-out: p-ERK IC50 (2 h, MiaPaCa-2; μM)
Procedure: (§1) Phospho-ERK1/2 MSD Assay:
(§2) Sixteen hours prior to compound treatment, MIA PaCa-2 or A549 cells were seeded in 96-well cell culture plates at a density of 25,000 cells/well and incubated at 37° C., 5% CO2. A compound dose-response titration was diluted in growth media, added to appropriate wells of a cell culture plate, and then incubated at 37° C., 5% CO2 for 2 or 4 hours (see Table 15). Following compound treatment, cells were stimulated with 10 ng/mL EGF (Roche 11376454001) for 10 min, washed with ice-cold Dulbecco's phosphate-buffered saline, no Ca2+ or Mg2+ (ThermoFisher Scientific 14190144), and then lysed in RIPA buffer (50 mM Tris-HCl pH 7.5, 1% Igepal, 0.5% sodium deoxycholate, 150 mM NaCl. and 0.5% sodium dodecyl sulfate) containing protease inhibitors (Roche 4693132001) and phosphatase inhibitors (Roche 4906837001). Phosphorylation of ERK1/2 in compound-treated lysates was assayed using Phospho-ERK1/2 Whole Cell Lysate kits (Meso Scale Discovery K151DWD) according to the manufacturer's protocol.

[2] = test system: Phosphorylation of ERK1/2 in A549 cells; experiment: Phospho-ERK1/2 MSD assay in A549 cells; format: cell-based; conditions: Homo sapiens, A549, 2 h, read-out: p-ERK IC50 (2 h, A549; μM)
Procedure: as §1
as §2, with “MIA PaCa-2 (ATCC® CRL-1420™) and A549 (ATCC® CCL-185™) cells were cultured in RPMI 1640 Medium (ThermoFisher Scientific 11875093) containing 10% fetal bovine serum (ThermoFisher Scientific 16000044) and 1× penicillin-streptomycin-glutamine (ThermoFisher Scientific 10378016). Sixteen” for “Sixteen”

[3] = target: GDP-bound KRAS protein (aa 1-169), containing both G12C and C118A amino acid substitutions (Homo sapiens (Human), UniProt P01116, C118A/G12C); experiment: Coupled nucleotide exchange assay (SOS-mediated nucleotide exchange, AlphaScreen); format: biochemical; conditions: 5 min compound pre-incubation; for IC50: read-out: Coupled exchange IC50 (5 min; μM)
[4] = Homo sapiens, MIA PaCa-2, 2 h, 2 h compound treatment, MIA PaCa-2 cells, EGF stimulated
[5] = 2 h compound treatment, A549 cells, EGF stimulated
[6] = 2 h compound treatment, MIA PaCa-2 cells, EGF stimulated

Sequence of GDP-bound KRAS protein (aa 1-169), containing both G12C and C118A amino acid substitutions (P01116 other isoform, or with tags, fused parts or gaps G12C/C118A): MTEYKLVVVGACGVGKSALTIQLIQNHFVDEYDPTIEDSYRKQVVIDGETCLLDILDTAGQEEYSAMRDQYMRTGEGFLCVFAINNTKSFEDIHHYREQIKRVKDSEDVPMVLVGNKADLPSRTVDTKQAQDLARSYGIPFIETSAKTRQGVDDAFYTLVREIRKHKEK

Compound	IC50 [1, 4] [µM]	IC50 [2, 5] [µM]	IC50 [3] [µM]	other results
C=CC(=O)N1C[C@H](C)N(c2nc(=O)n(-c3c(C)ccnc3C(C)C)c3nc(-c4cscc4C)c(Cl)cc23)C[C@H]1C (atropisomer, axis not shown; (M)) [Example 92-5, (M)-6-Chloro-4-[(2S,5R)-2,5-dimethyl-4-prop-2-enoyl-piperazin-1-yl]-1-(2-isopropyl-4-methyl-3-pyridyl)-7-(4-methyl-3-thienyl)pyrido[2,3-d]pyrimidin-2-one]	0.119	> 7.5	–	–
C=CC(=O)N1C[C@H](C)N(c2nc(=O)n(-c3c(C)ccnc3C(C)C)c3nc(C4=CCCCC4)c(Cl)cc23)C[C@H]1C (atropisomer, axis not shown; (M)) [Example 92-6, (M)-6-Chloro-7-(cyclohexen-1-yl)-4-[(2S,5R)-2,5-dimethyl-4-prop-2-enoyl-piperazin-1-yl]-1-(2-isopropyl-4-methyl-3-pyridyl)pyrido [2,3-d]pyrimidin-2-one]	0.237	> 7.5	–	–
C=CC(=O)N1C[C@H](C)N(c2nc(=O)n(-c3c(C)ccnc3C(C)C)c3nc(-c4cc(C)sc4C)c(Cl)cc23)C[C@H]1C (atropisomer, axis not shown; (M)) [Example 92-7, (M)-6-Chloro-4-[(2S,5R)-2,5-dimethyl-4-prop-2-enoyl-piperazin-1-yl]-7-(2,5-dimethyl-3-thienyl)-1-(2-isopropyl-4-methyl-3-pyridyl)pyrido [2,3-d]pyrimidin-2-one]	0.259	> 7.5	–	–
C=CC(=O)N1C[C@H](C)N(c2nc(=O)n(-c3c(C)ccnc3C(C)C)c3nc(-c4cc(F)c(F)c(F)c4N)c(Cl)cc23)C[C@H]1C (atropisomer, axis not shown; (M)) [Example 92-38, (M)-7-(2-Amino-3,4,5-trifluoro-phenyl)-6-chloro-4-[(2S,5R)-2,5-dimethyl-4-prop-2-enoyl-piperazin-1-yl]-1-(2-isopropyl-4-methyl-3-pyridyl)pyrido [2,3-d]pyrimidin-2-one]	0.042	> 7.5	–	–
C=CC(=O)N1C[C@H](C)N(c2nc(=O)n(-c3c(C)ccnc3C(C)C)c3nc(-c4ccccc4CO)c(F)cc23)C[C@H]1C (atropisomer, axis not shown; (M)) [Example 94-2, (M)-4-[(2S,5R)-2,5-dimethyl-4-prop-2-enoyl-piperazin-1-yl]-6-fluoro-7-[2-(hydroxymethyl)phenyl]-1-(2-isopropyl-4-methyl-3-pyridyl)pyrido [2,3-d]pyrimidin-2-one]	–	–	–	IC50 ([1]; Homo sapiens, MIA PaCa-2, 2 h): 0.204 µM; IC50 [2]: > 7.5 µM
C=CC(=O)N1C[C@H](C)N(c2nc(=O)n(-c3c(C)ccnc3C(C)C)c3nc(-c4c(F)cccc4[S+](C)[O-])c(Cl)cc23)C[C@H]1C (atropisomer, axis not shown; (M)) [Example 211-1, (M)-4-((2S,5R)-4-Acryloyl-2,5-dimethylpiperazin-1-yl)-6-chloro-7-(2-fluoro-6-(methylsulfinyl)phenyl)-1-(2-isopropyl-4-methylpyridin-3-yl)pyrido[2,3-d]pyrimidin-2(1H)-one]	–	> 7.5	–	IC50 [1, 6]: 0.128 µM
C=CC(=O)N1[C@H](C)CN(c2nc(=O)n(-c3c(C)cc(N)nc3C(C)C)c3nc(-c4c(N)cccc4F)c(F)cc23)C[C@@H]1C (single isomer, unassigned) [Example 123-5]	–	–	7.53	IC50 [1, 6]: 10 µM
C=CC(=O)N1C[C@H](C)N(c2nc(=O)n3c4nc(c(Cl)cc24)-c2ccccc2C/C=C/Cc2cccc(C(C)C)c2-3)C[C@H]1C (single isomer, unassigned) [Example 146-2-1]	–	–	0.025	IC50 [1, 6]: 0.024 µM
C=CC(=O)N1C[C@H](C)N(c2nc(=O)n(-c3c(N(C)C)ccnc3C(C)C)c3nc(-c4c(F)cccc4NC(=O)CC)c(Cl)cc23)C[C@H]1C [Example 122-2, N-[2-[6-Chloro-1-[4-(dimethylamino)-2-isopropyl-3-pyridyl]-4-[(2S,5R)-2,5-dimethyl-4-prop-2-enoyl-piperazin-1-yl]-2-oxo-pyrido[2,3-d]pyrimidin-7-yl]-3-fluoro-phenyl]propanamide]	1.21	–	0.357	–
C=CC(=O)N1C[C@H](C)N(c2nc(=O)n(-c3c(C(C)C)cnc(C)c3C)c3nc(-c4ccccc4F)c(Cl)cc23)C[C@H]1C [Example 179, 4-((2S,5R)-4-Acryloyl-2,5-dimethylpiperazin-1-yl)-6-chloro-7-(2-fluorophenyl)-1-(5-isopropyl-2,3-dimethylpyridin-4-yl)pyrido[2,3-d]pyrimidin-2(1H)-one]	–	> 7.5	–	–
C=CC(=O)N1CCN(c2nc(=O)n(CC(C)(C)O)c3nc(-c4ccccc4F)c(Cl)cc23)CC1 [Example 180, 4-(4-Acryloylpiperazin-1-yl)-6-chloro-7-(2-fluorophenyl)-1-(2-hydroxy-2-methylpropyl)pyrido[2,3-d]pyrimidin-2(1H)-one]	10	–	–	Coupled exchange IC50 (5 min; μM) [3]: 85.1 µM
C=CC(=O)N1C[C@H](C)N(c2nc(=O)n(-c3c(C)cc(S(C)(=O)=O)cc3C(C)C)c3nc(-c4ccccc4F)c(Cl)cc23)C[C@H]1C [Example 215, 4-((2S,5R)-4-Acryloyl-2,5-dimethylpiperazin-1-yl)-6-chloro-7-(2-fluorophenyl)-1-(2-isopropyl-6-methyl-4-(methylsulfonyl)phenyl)pyrido[2,3-d]pyrimidin-2(1H)-one]	0.275	–	0.076	–
C=CC(=O)N1C[C@H](C)N(C2=NC(=O)CN(CC(C)(C)C)c3nc(-c4ccccc4F)c(Cl)cc32)C[C@H]1C [Example 217, 5-((2S,5R)-4-Acryloyl-2,5-dimethylpiperazin-1-yl)-7-chloro-8-(2-fluorophenyl)-1-neopentyl-1,2-dihydro-3H-pyrido[2,3-e][1,4]diazepin-3-one]	–	–	–	IC50 [2]: > 7.5 µM
C=CC(=O)N1C[C@H](C)N(C2=NCC(=O)N(CC(C)(C)C)c3nc(-c4ccccc4F)c(Cl)cc32)C[C@H]1C [Example 220, 5-((2S,5R)-4-Acryloyl-2,5-dimethylpiperazin-1-yl)-7-chloro-8-(2-fluorophenyl)-1-neopentyl-1,3-dihydro-2H-pyrido[2,3-e][1,4]diazepin-2-one]	–	–	250	–
C=CC(=O)N1CCN(c2c(C(N)=O)c(=O)n(-c3c(C)ccnc3C(C)C)c3nc(-c4ccccc4F)c(Cl)cc23)CC1 [Example 221, 4-(4-Acryloylpiperazin-1-yl)-6-chloro-7-(2-fluorophenyl)-1-(2-isopropyl-4-methylpyridin-3-yl)-2-oxo-1,2-dihydro-1,8-naphthyridine-3-carboxamide]	–	–	1.26	–
C=CC(=O)N1[C@H](C)CN(c2nc(=O)n(-c3c(C)ccnc3C(C)C)c3nc(-c4ccccc4F)c(Cl)nc23)C[C@@H]1C [Example 224, 4-((3R,5S)-4-Acryloyl-3,5-dimethylpiperazin-1-yl)-6-chloro-7-(2-fluorophenyl)-1-(2-isopropyl-4-methylpyridin-3-yl)pteridin-2(1H)-one]	–	–	7.62	–
C=CC(=O)N1CCN(c2nc(=O)n(-c3c(C)ccnc3C(C)C)c3nc(-c4c(C)ccc5c4CC(=O)N5)c(Cl)cc23)[C@@H](C)C1 [Example 228, 4-((S)-4-Acryloyl-2-methylpiperazin-1-yl)-6-chloro-1-(2-isopropyl-4-methylpyridin-3-yl)-7-(5-methyl-2-oxoindolin-4-yl)pyrido[2,3-d]pyrimidin-2(1H)-one]	–	–	–	Coupled exchange IC50 (5 min; μM) [3]: 0.769 µM
C=CC(=O)N1C[C@H](C)N(c2nc(=O)n(-c3c(C)cc([S+](C)[O-])cc3C(C)C)c3nc(-c4ccccc4F)c(Cl)cc23)C[C@@H]1C (some centres unmarked) [compound 216]	–	–	2.01	–
